The structures appear in SMILES notation. ± gives the expanded uncertainty stated by the source.

For the data set the following is noted: 298.15 K; 101.33 kPa; Liquid; Pycnometric method.
For orientation: mass density means the mass of a sample divided by its volume. Take `CCC(C)(C)OC` [2-methoxy-2-methylbutane]: the mass density came to 765.68 ± 0.69 kg/m3.

Turning to `CCCCO` [butan-1-ol], the mass density was found to be 805.87 ± 0.72 kg/m3.

With `CCC(C)O` (stereo not drawn) [butan-2-ol], the mass density came to 802.73 ± 0.72 kg/m3.

As to `CCO` [ethanol], the mass density was 785.29 ± 0.71 kg/m3.

On to `CO` [methanol], for which the mass density was found to be 786.64 ± 0.71 kg/m3.

In the case of `CCCO` [propan-1-ol], the mass density came to 799.89 ± 0.72 kg/m3.

Turning to `CC(C)O` [propan-2-ol], the mass density came out at 781.34 ± 0.7 kg/m3.

On to `O` [water], for which the mass density was 997.17 ± 0.9 kg/m3.

The values are drawn from the NIST ThermoML archive (doi:10.1021/je8006698).
